# US20240199587A1, “HETEROCYCLIC COMPOUNDS” (Hoffmann-La Roche Inc., priority 2021, published 2024)
# Biological target: T1, MAGL (Homo sapiens, UniProt Q99685)
# T1 sequence (Q99685 1-303): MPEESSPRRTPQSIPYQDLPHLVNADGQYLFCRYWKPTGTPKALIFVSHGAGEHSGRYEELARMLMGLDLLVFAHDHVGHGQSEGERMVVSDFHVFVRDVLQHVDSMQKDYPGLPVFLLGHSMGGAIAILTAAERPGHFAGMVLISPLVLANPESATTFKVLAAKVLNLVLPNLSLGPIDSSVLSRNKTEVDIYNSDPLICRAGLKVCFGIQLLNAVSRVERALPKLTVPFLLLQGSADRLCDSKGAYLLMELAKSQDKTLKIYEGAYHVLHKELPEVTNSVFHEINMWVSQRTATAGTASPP
# Assay: 2-AG assay (MAGL inhibitory activity, hydrolysis of 2-arachidonoylglycerol to arachidonic acid followed by mass spectrometry)
# Type: biochemical
# Settings: 8 μM 2-arachidonoylglycerol, 15 min pre-incubation, 30 min incubation at RT, RapidFire MS readout
# Outline: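 Human MAGL ([…] final) pre-incubated 15 min at RT with compound in 50 mM TRIS, 1 mM EDTA, 0.01% Tween-20, 2.5% DMSO; 8 μM 2-AG then added for 30 min at RT. Acetonitrile quench with d8-arachidonic acid; arachidonic acid measured by RapidFire SPE–MS/MS, activity from arachidonic acid/d8 ratio.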
row,Compound,IC50
1,"O=C(N1CC2(CC(Cc3cnc(C(F)(F)F)nc3)C2)C1)N1CC2(CC(n3cnc(C4(O)CC4)n3)C2)C1 [Example 410, [6-[3-(1-hydroxycyclopropyl)-1,2,4-triazol-1-yl]-2-azaspiro[3.3]heptan-2-yl]-[6-[[2-(trifluoromethyl)pyrimidin-5-yl]methyl]-2-azaspiro[3.3]heptan-2-yl]methanone]",24.9 nM
2,O=C(N1CC2(CC(n3cnc(C4CC4)n3)C2)C1)N1CC2(CCN(Cc3ccc(C(F)(F)F)nc3)C2)C1 [Example 434],3.37 nM
3,"O=C(N1CC2(CC(n3cnc(C4CC4)n3)C2)C1)N1CC2(C1)CN(S(=O)(=O)c1ccc(F)cc1C(F)(F)F)C2 [Example 211, (6-(3-cyclopropyl-1H-1,2,4-triazol-1-yl)-2-azaspiro[3.3]heptan-2-yl)(6-((4-fluoro-2-(trifluoromethyl)phenyl)sulfonyl)-2,6-diazaspiro[3.3]heptan-2-yl)methanone]",1.4 nM
4,"O=C(N1CC2(CC(Cc3cnc(C(F)(F)F)cn3)C2)C1)N1CC2(CC(n3cnc(C4(O)CC4)n3)C2)C1 [Example 487, [6-[3-(1-hydroxycyclopropyl)-1,2,4-triazol-1-yl]-2-azaspiro[3.3]heptan-2-yl]-[6-[[5-(trifluoromethyl)pyrazin-2-yl]methyl]-2-azaspiro[3.3]heptan-2-yl]methanone]",3.93 nM
5,"O=C(N1CC(c2ccc(N3CC[C@@H](C(F)(F)F)C3)nc2)C1)N1CC2(CC(n3cnc(C4(O)CC4)n3)C2)C1 [Example 373, [6-[3-(1-hydroxycyclopropyl)-1,2,4-triazol-1-yl]-2-azaspiro[3.3]heptan-2-yl]-[3-[6-[(3R)-3-(trifluoromethyl)pyrrolidin-1-yl]-3-pyridyl]azetidin-1-yl]methanone]",3.24 nM
6,"O=C(N1CC2(CC(n3cnc(C4CC4)n3)C2)C1)N1CC2(C1)CN(C(=O)C(F)(F)F)C2 [Example 337, 1-[2-[6-(3-cyclopropyl-1,2,4-triazol-1-yl)-2-azaspiro[3.3]heptane-2-carbonyl]-2,6-diazaspiro[3.3]heptan-6-yl]-2,2,2-trifluoro-ethanone]",1830 nM
7,"CS(=O)(=O)c1cc(Cl)ccc1-c1ccc(C2CN(C(=O)N3CC4(CC(c5ccc(C(F)(F)F)nc5)C4)C3)C2)cn1 [Example 386, [3-[6-(4-chloro-2-methylsulfonyl-phenyl)-3-pyridyl]azetidin-1-yl]-[6-[6-(trifluoromethyl)-3-pyridyl]-2-azaspiro[3.3]heptan-2-yl]methanone]",142 nM
8,"CS(=N)(=O)c1ccc(CC2CC3(C2)CN(C(=O)N2CC4(CC(n5cnc(C6CC6)n5)C4)C2)C3)cc1 (stereo not drawn) [Example 462, [6-(3-cyclopropyl-1,2,4-triazol-1-yl)-2-azaspiro[3.3]heptan-2-yl]-[6-[[4-(methylsulfonimidoyl)phenyl]methyl]-2-azaspiro[3.3]heptan-2-yl]methanone]",2.94 nM
9,"NC(=O)[C@H]1CC(F)(F)CCN1c1ccc(C2CN(C(=O)N3CC4(CC(n5cnc(C6CC6)n5)C4)C3)C2)cc1 (single isomer, unassigned) [Example 494]",2.34 nM
10,"N#Cc1ccc(CC2CC3(C2)CN(C(=O)N2CC4(CC(n5cnc(C6(O)CC6)n5)C4)C2)C3)cc1C(F)(F)F [Example 368, 4-[[2-[6-[3-(1-hydroxycyclopropyl)-1,2,4-triazol-1-yl]-2-azaspiro[3.3]heptane-2-carbonyl]-2-azaspiro[3.3]heptan-6-yl]methyl]-2-(trifluoromethyl) benzonitrile]",1.57 nM
11,"CS(=O)(=O)c1ccc(CC2CC3(C2)CN(C(=O)N2CC4(CC(c5ccc(C(F)(F)F)nc5)C4)C2)C3)cc1C(F)(F)F [Example 532, [6-[[4-methylsulfonyl-3-(trifluoromethyl)phenyl]methyl]-2-azaspiro[3.3]heptan-2-yl]-[6-[6-(trifluoromethyl)-3-pyridyl]-2-azaspiro[3.3]heptan-2-yl]methanone]",131 nM
12,"CS(=O)(=O)c1cc(Cl)ccc1-c1ccc(C2CN(C(=O)N3CC4(CC(c5ccc(C(F)(F)F)nc5)C4)C3)C2)cc1 [Example 371, [3-[4-(4-chloro-2-methylsulfonyl-phenyl)phenyl]azetidin-1-yl]-[6-[6-(trifluoromethyl)-3-pyridyl]-2-azaspiro[3.3]heptan-2-yl]methanone]",9.23 nM
13,"O=C(N1CC2(CC(Oc3cncc(C(F)(F)F)n3)C2)C1)N1CC2(CC(n3cnc(C4CC4)n3)C2)C1 [Example 51, (6-(3-cyclopropyl-1H-1,2,4-triazol-1-yl)-2-azaspiro[3.3]heptan-2-yl)(6-((6-(trifluoromethyl)pyrazin-2-yl)oxy)-2-azaspiro[3.3]heptan-2-yl)methanone]",0.3 nM
14,"Cc1oncc1S(=O)(=O)N1CC2(CN(C(=O)N3CC4(CC(n5cnc(C6CC6)n5)C4)C3)C2)C1 [Example 300, [6-(3-cyclopropyl-1,2,4-triazol-1-yl)-2-azaspiro[3.3]heptan-2-yl]-[2-(5-methylisoxazol-4-yl)sulfonyl-2,6-diazaspiro[3.3]heptan-6-yl]methanone]",95.7 nM
15,"O=C(N1CC2(CC(Cc3ncc(F)cc3F)C2)C1)N1CC2(CC(n3cnc(C4(O)CC4)n3)C2)C1 [Example 402, [6-[(3,5-difluoro-2-pyridyl)methyl]-2-azaspiro[3.3]heptan-2-yl]-[6-[3-(1-hydroxycyclopropyl)-1,2,4-triazol-1-yl]-2-azaspiro[3.3]heptan-2-yl]methanone]",3.91 nM
16,"O=C(N1CC2(CC(n3cnc(C4CC4)n3)C2)C1)N1CC2(CN(Cc3cc(F)cc(F)c3)C2)C1 [Example 221, [6-(3-cyclopropyl-1,2,4-triazol-1-yl)-2-azaspiro[3.3]heptan-2-yl]-[6-[(3,5-difluorophenyl)methyl]-2,6-diazaspiro[3.3]heptan-2-yl]methanone]",2.5 nM
17,"O=C(N1CC(c2ccc(N3CCC(O)(C(F)(F)F)C3)nc2)C1)N1CC2(CC(n3cnc(C4CC4)n3)C2)C1 (single isomer, unassigned) [Example 214]",1.6 nM
18,"O=C(N1CC2(CC(Cc3ccc(F)cc3F)C2)C1)N1CC2(CC(n3cnc(C4CCC4)n3)C2)C1 [Example 184, [6-(3-cyclobutyl-1,2,4-triazol-1-yl)-2-azaspiro[3.3]heptan-2-yl]-[6-[(2,4-difluorophenyl)methyl]-2-azaspiro[3.3]heptan-2-yl]methanone]",0.1 nM
19,"CS(=O)(=O)c1cccc(CC2CC3(C2)CN(C(=O)N2CC4(CC(n5cnc(C(F)(F)F)n5)C4)C2)C3)c1 [Example 456, [6-[(3-methylsulfonylphenyl)methyl]-2-azaspiro[3.3]heptan-2-yl]-[6-[3-(trifluoromethyl)-1,2,4-triazol-1-yl]-2-azaspiro[3.3]heptan-2-yl]methanone]",1.16 nM
20,"O=C(N1CC2(CC(n3cnc(C4CC4)n3)C2)C1)N1CC2(C1)CN(S(=O)(=O)c1ccc(F)cc1F)C2 [Example 231, [6-(3-cyclopropyl-1,2,4-triazol-1-yl)-2-azaspiro[3.3]heptan-2-yl]-[2-(2,4-difluorophenyl)sulfonyl-2,6-diazaspiro[3.3]heptan-6-yl]methanone]",4.6 nM
21,"CP(C)(=O)c1ccc(CC2CC3(C2)CN(C(=O)N2CC4(CC(n5cnc(C(F)(F)F)n5)C4)C2)C3)nc1 [Example 377, [6-[(5-dimethylphosphoryl-2-pyridyl)methyl]-2-azaspiro[3.3]heptan-2-yl]-[6-[3-(trifluoromethyl)-1,2,4-triazol-1-yl]-2-azaspiro[3.3]heptan-2-yl]methanone]",392 nM
22,"NC(=O)C(c1ccc(F)cc1)C1CCN(C(=O)N2CC3(CC(n4cnc(C5CC5)n4)C3)C2)CC1 (single isomer, unassigned) [Example 301]",97.3 nM
23,"CC(C)(C)CS(=O)(=O)NC1CC2(C1)CN(C(=O)N1CC3(CC(n4cnc(C5CC5)n4)C3)C1)C2 [Example 215, N-[2-[6-(3-cyclopropyl-1,2,4-triazol-1-yl)-2-azaspiro[3.3]heptane-2-carbonyl]-2-azaspiro[3.3]heptan-6-yl]-2,2-dimethyl-propane-1-sulfonamide]",1.7 nM
24,"O=C(N1CC(c2ccc(N3CC(C(F)(F)F)C3)nc2)C1)N1CC2(CC(c3ccc(C(F)(F)F)nc3)C2)C1 [Example 523, [3-[6-[3-(trifluoromethyl)azetidin-1-yl]-3-pyridyl]azetidin-1-yl]-[6-[6-(trifluoromethyl)-3-pyridyl]-2-azaspiro[3.3]heptan-2-yl]methanone]",393 nM
25,"O=C(N1CC2(CC(Oc3cc(F)cc(C(F)(F)F)c3)C2)C1)N1CC2(CC(n3cnc(C4CC4)n3)C2)C1 [Example 46, (6-(3-cyclopropyl-1H-1,2,4-triazol-1-yl)-2-azaspiro[3.3]heptan-2-yl)(6-(3-fluoro-5-(trifluoromethyl)phenoxy)-2-azaspiro[3.3]heptan-2-yl)methanone]",0.2 nM
26,"Cc1cnn(C2CC3(C2)CN(C(=O)c2ccc(-c4noc(C(C)(C)C)n4)cc2)C3)c1 [Example 146, [4-(5-tert-butyl-1,2,4-oxadiazol-3-yl)phenyl]−[6-(4-methylpyrazol-1-yl)-2-azaspiro[3.3]heptan-2-yl]methanone]",400 nM
27,"CC(C)(C)c1nc(-c2ccc(C(=O)N3CC4(CC(n5ncnc5C5CC5)C4)C3)cc2)no1 [Example 17, [4-(5-tert-butyl-1,2,4-oxadiazol-3-yl)phenyl]-[6-(5-cyclopropyl-1,2,4-triazol-1-yl)-2-azaspiro[3.3]heptan-2-yl]methanone]",3360 nM
